# In patent US12128035B2, “Activating pyruvate kinase R” (Novo Nordisk Health Care AG, priority 2021, dated 2024):
# Tested on: ATP blood levels
# Assay: Phase 1 SAD/MAD: blood ATP (LC-MS/MS) in healthy volunteers
# Assay type: in vivo, human
# Conditions: for Median Percentage Change in ATP Levels / Mean Percentage Change in ATP Levels: HV 400 mg QD
# Description: In this study, SAD/MAD cohorts are randomized (3 to 1) to receive Compound 1 or placebo (P). Compound 1 was evaluated first in 4 healthy SAD cohorts and 4 healthy MAD (14-day dosing period) cohorts. Based on the safety, and PK/PD profile from HS, Compound 1 is then evaluated in 1 SCD SAD cohort and 2 SCD MAD cohorts. Specifically, based on the safety and pharmacokinetic/pharmacodynamics (PK/PD) profile in healthy volunteer studies, Compound 1 is evaluated in patients (pts) with SCD, first in a single dose (SD or SAD) cohort and then in multiple-dose (MD or MAD) cohorts (14-day and 12-week). Safety assessments include AEs, vital signs, ECGs and laboratory parameters. PK/PD blood sampling was performed on Day 1 (SAD/MAD) and Day 14 (MAD) and up to 72 h after the last dose and at the end-of-study visit. PD parameters included 2,3-DPG, ATP, and p50 in all cohorts with additional PD studies (including oxygen scan) performed only in the SCD cohorts. PD parameters included 2,3-DPG, ATP, p50, RBC deformability with controlled deoxygenation and reoxygenation (Lorrca® oxygen scan) and varying osmolality (Lorrca® osmoscan)). To maintain study blind, pt identifiers were removed when needed.
# In the MAD cohorts, the subjects' blood ATP levels were measured […] by a qualified LC-MS/MS method for the quantitation of ATP in blood. […] Table 20A reports the median percentage change in blood ATP levels, relative to baseline, measured over time after the first dose on days 1 and 14 in healthy volunteers who received daily doses of Compound 1 (100 mg BID, 200 mg BID, 300 mg BID, or 400 mg QD) or placebo for 14 days. Table 20B reports the mean percentage change in ATP blood levels, relative to baseline, measured over time after the first dose on days 1 and 14 in healthy volunteers who received daily doses of Compound 1 (100 mg BID, 200 mg BID, 300 mg BID, or 400 mg QD) for 14 days.
# The following procedures are employed for the analysis of ATP and 2,3-DPG in human whole blood K2EDTA using a protein precipitation extraction procedure and analysis by LC-MS/MS.
# The following procedures are used for sample extraction prior to analysis via LC-MS/MS. 15.0 μL of the calibration standards, quality controls, matrix blanks, and samples are aliquoted into a 96-well plate. 50.0 μL of the internal standard spiking solution is added to all samples on the plate, with the exception of the matrix blank samples; 50.0 μL of water is added to the matrix blank samples. Subsequently, 150 μL of water is added to all samples on the plate. The plate is then covered and agitated by vortex at high speed for ten minutes, after which 750 μL of methanol is added to all samples on the plate. The plate is covered and agitated by vortex for approximately 1 minute. The plate is then centrifuged at approximately 3500 RPM at approximately 4° C. for five minutes. After centrifugation, a liquid handler is used to transfer 50 μL of each sample to a new 96-well plate, and 200 μL of acetonitrile is added to all samples on the plate. The newly prepared plate is covered and agitated by vortex for approximately 1 minute. The plate is then centrifuged at approximately 3500 RPM at approximately 4° C. for 2 minutes.
# [1] = Day 1, 24 h after first daily dose
# [2] = Day 14, 0 h after first daily dose
# [3] = Day 14, 6 h after first daily dose
# [4] = Day 14, 8 h after first daily dose
# [5] = Day 14, 12 h after first daily dose
# [6] = Day 14, 16 h after first daily dose
# [7] = Day 14, 24 h after first daily dose
# [8] = Day 14, 48 h after first daily dose
# [9] = Day 14, 72 h after first daily dose
# [10] = HV single 200 mg, 0 h after dose
# [11] = HV single 200 mg, 6 h after dose
# [12] = HV single 200 mg, 8 h after dose
# [13] = HV single 200 mg, 12 h after dose
# [14] = HV single 200 mg, 16 h after dose
# [15] = HV single 200 mg, 24 h after dose
# [16] = HV single 200 mg, 36 h after dose
# [17] = HV single 200 mg, 48 h after dose
# [18] = HV single 200 mg, 72 h after dose
# [19] = HV single 400 mg, 0 h after dose
# [20] = HV single 400 mg, 6 h after dose
# [21] = HV single 400 mg, 8 h after dose
# [22] = HV single 400 mg, 12 h after dose
# [23] = HV single 400 mg, 16 h after dose
# [24] = HV single 400 mg, 24 h after dose
# [25] = HV single 400 mg, 36 h after dose
# [26] = HV single 400 mg, 48 h after dose
# [27] = HV single 400 mg, 72 h after dose
# [28] = HV single 700 mg, 0 h after dose
# [29] = HV single 700 mg, 6 h after dose
# [30] = HV single 700 mg, 8 h after dose
# [31] = HV single 700 mg, 12 h after dose
# [32] = HV single 700 mg, 16 h after dose
# [33] = HV single 700 mg, 24 h after dose
# [34] = HV single 700 mg, 36 h after dose
# [35] = HV single 700 mg, 48 h after dose
# [36] = HV single 700 mg, 72 h after dose
# [37] = HV single 1000 mg, 0 h after dose
# [38] = HV single 1000 mg, 6 h after dose
# [39] = HV single 1000 mg, 8 h after dose
# [40] = HV single 1000 mg, 12 h after dose
# [41] = HV single 1000 mg, 16 h after dose
# [42] = HV single 1000 mg, 24 h after dose
# [43] = HV single 1000 mg, 36 h after dose
# [44] = HV single 1000 mg, 48 h after dose
# [45] = HV single 1000 mg, 72 h after dose
structure (smiles),measurement,setting,value
"O=C([C@H](CO)c1ccccc1)N1CC2=C(C1)CN(S(=O)(=O)c1cnc3c(c1)OCCO3)C2 (single isomer, unassigned) [Compound 1]",Median Percentage Change in ATP Levels,"Day 1, 16 h after first daily dose",−1.8%
same,Mean Percentage Change in ATP Levels,[1],1.9%
same,Median Percentage Change in ATP Levels,[1],0.0%
same,Mean Percentage Change in ATP Levels,[2],54%
same,Median Percentage Change in ATP Levels,[2],52%
same,Mean Percentage Change in ATP Levels,[3],48%
same,Median Percentage Change in ATP Levels,[3],52%
same,Mean Percentage Change in ATP Levels,[4],51%
same,Median Percentage Change in ATP Levels,[4],52%
same,Mean Percentage Change in ATP Levels,[5],50%
same,Median Percentage Change in ATP Levels,[5],56%
same,Mean Percentage Change in ATP Levels,[6],51%
same,Median Percentage Change in ATP Levels,[6],51%
same,Mean Percentage Change in ATP Levels,[7],57%
same,Median Percentage Change in ATP Levels,[7],52%
same,Mean Percentage Change in ATP Levels,[8],60%
same,Median Percentage Change in ATP Levels,[8],61%
same,Mean Percentage Change in ATP Levels,[9],51%
same,Median Percentage Change in ATP Levels,[9],54%
same,"Mean Maximum Percent Change from Baseline, ATP","HV MAD, all doses and timepoints (N = 36)",68.5%
same,"Mean Maximum Percent Change from Baseline, ATP","HV SAD, all doses and timepoints (N = 24)",24.4%
same,mean percentage change in ATP blood levels,[10],0%
same,median percentage change in ATP blood levels,[10],0%
same,mean percentage change in ATP blood levels,[11],0.7%
same,median percentage change in ATP blood levels,[11],−4.5%
same,mean percentage change in ATP blood levels,[12],−2.1%
same,median percentage change in ATP blood levels,[12],−1.7%
same,mean percentage change in ATP blood levels,[13],2.0%
same,median percentage change in ATP blood levels,[13],1.7%
same,mean percentage change in ATP blood levels,[14],−6.9%
same,median percentage change in ATP blood levels,[14],−6.6%
same,mean percentage change in ATP blood levels,[15],3.4%
same,median percentage change in ATP blood levels,[15],4.7%
same,mean percentage change in ATP blood levels,[16],6.2%
same,median percentage change in ATP blood levels,[16],4.1%
same,mean percentage change in ATP blood levels,[17],2.0%
same,median percentage change in ATP blood levels,[17],−2.4%
same,mean percentage change in ATP blood levels,[18],12%
same,median percentage change in ATP blood levels,[18],11%
same,mean percentage change in ATP blood levels,[19],0%
same,median percentage change in ATP blood levels,[19],0%
same,mean percentage change in ATP blood levels,[20],2.2%
same,median percentage change in ATP blood levels,[20],4.1%
same,mean percentage change in ATP blood levels,[21],−2.5%
same,median percentage change in ATP blood levels,[21],−8.8%
same,mean percentage change in ATP blood levels,[22],5.6%
same,median percentage change in ATP blood levels,[22],7.2%
same,mean percentage change in ATP blood levels,[23],5.6%
same,median percentage change in ATP blood levels,[23],4.5%
same,mean percentage change in ATP blood levels,[24],15%
same,median percentage change in ATP blood levels,[24],13%
same,mean percentage change in ATP blood levels,[25],18%
same,median percentage change in ATP blood levels,[25],16%
same,mean percentage change in ATP blood levels,[26],14%
same,median percentage change in ATP blood levels,[26],14%
same,mean percentage change in ATP blood levels,[27],14%
same,median percentage change in ATP blood levels,[27],18%
same,mean percentage change in ATP blood levels,[28],0%
same,median percentage change in ATP blood levels,[28],0%
same,mean percentage change in ATP blood levels,[29],−2.8%
same,median percentage change in ATP blood levels,[29],−2.6%
same,mean percentage change in ATP blood levels,[30],−2.9%
same,median percentage change in ATP blood levels,[30],−1.6%
same,mean percentage change in ATP blood levels,[31],−5.5%
same,median percentage change in ATP blood levels,[31],−5.4%
same,mean percentage change in ATP blood levels,[32],−1.3%
same,median percentage change in ATP blood levels,[32],−2.4%
same,mean percentage change in ATP blood levels,[33],13%
same,median percentage change in ATP blood levels,[33],12%
same,mean percentage change in ATP blood levels,[34],4.5%
same,median percentage change in ATP blood levels,[34],3.6%
same,mean percentage change in ATP blood levels,[35],2.5%
same,median percentage change in ATP blood levels,[35],0%
same,mean percentage change in ATP blood levels,[36],10%
same,median percentage change in ATP blood levels,[36],5.1%
same,mean percentage change in ATP blood levels,[37],0%
same,median percentage change in ATP blood levels,[37],0%
same,mean percentage change in ATP blood levels,[38],−1.7%
same,median percentage change in ATP blood levels,[38],5.1%
same,mean percentage change in ATP blood levels,[39],4.0%
same,median percentage change in ATP blood levels,[39],3.1%
same,mean percentage change in ATP blood levels,[40],2.9%
same,median percentage change in ATP blood levels,[40],7.3%
same,mean percentage change in ATP blood levels,[41],6.9%
same,median percentage change in ATP blood levels,[41],2.4%
same,mean percentage change in ATP blood levels,[42],12%
same,median percentage change in ATP blood levels,[42],14%
same,mean percentage change in ATP blood levels,[43],13%
same,median percentage change in ATP blood levels,[43],16%
same,mean percentage change in ATP blood levels,[44],14%
same,median percentage change in ATP blood levels,[44],10%
same,mean percentage change in ATP blood levels,[45],22%
same,median percentage change in ATP blood levels,[45],20%
same,lag of maximum increase in blood ATP behind maximum plasma concentration,"HV single 200, 400, 700 or 1000 mg",at least 24 hours
